This is an account of results in patent US8101653B2, “Therapeutic compositions” (BTG International Limited, priority 1997, dated 2012).

The subject of data set [1] is liver cytosolic [NAD]/[NADH]. The following applies: after feeding/administration; 1,3 butandiol decrease from 1500; cited from earlier work.
The conditions of data set [2]: liquid diet supplemented with 47% of its caloric content; cited from earlier work.
Data set [3] concerns whole brain GABA levels. The experiment in a line: Effect of increased blood D-β-hydroxybutyrate on whole brain GABA levels. The data set is classed as in vivo, rat. The following applies: 120 minutes after administration as in Example 3; t=0 level 191. As to the method:
To assess the effect of D-β-hydroxybutyrate on whole brain GABA levels, and thus provide an indication of antiepileptic effect of ketone body or precursor treatment aimed at increasing blood ketone body levels, whole rat brain was frozen at set times after administration of D-β-hydroxybutyrate as described in Example 3, GBA was assayed using standard HPLC technique and related to protein content using standard protein assay.

Data set [4] concerns primary hippocampal cultures. The experiment in a line: Effect of D-β-hydroxybutyrate on β-amyloid toxicity to hippocampal cells in vitro (microisland cultures). In kind it is cell-based, Wistar. The following applies: for neuronal cell number per microisland: increase from a mean of 30. On the procedure:
The serum free medium used from 0 to day 4 contained Neurobasal medium with B27 supplement diluted 50 fold (Life Technology, Gaithersburg, Md.) to which was added: 0.5 mM L-glutamine, 25 μM Na L-glutamate, 100 U/ml penicillin and 100 μg/ml streptomycin. After day 4, DMEM/F12 medium containing 5 μM insulin, 30 nM 1-thyroxine, 20 nM progesterone, 30 nM Na selenite 100 U/ml penicillin and 100 μg/ml streptomycin were used.
The primary hippocampal cultures were removed from Wistar embryos on day 18 and dispersed by gentle aggitation in a pipette. The suspension was centrifuge at 1,500×g for 10 min and the supernatant discarded. New media was make 0.4-0.5×10^6 cells/ml. Ten μl of this suspension was pipetted into the center of poly D-lysine coated culture wells and the plates incubated at 38° C. for 4 hrs and then 400 μl of fresh Neurobasal media was added. After 2 days of incubation, half of the media was exchanged for fresh media and the incubation continued for 2 more days. After day 4, the medium was changed with DMEM/F12 medium containing 5 μM insulin, 30 nM 1-thyroxine, 20 nM progestrone, 30 nM Na selenite 100 U/ml penicillin and 100 μg/ml streptomycin. […] These media were exchanged 2 days later (day 8) and the cells were fixed on day 10 and stained with anti MAP2 (Boehringer Manheim, Indianapolis, Id.) to visual neurons and vimentin and GFAP (Boehringer) to visualize glial cells.

For data set [5] the following is noted: cited from earlier work.
For data set [6] the following is noted: room temperature, unesterified state; cited from earlier work.
Data set [7] concerns cerebral circulation and regional vasomotor reflexes. The following applies: in vivo; cited from earlier work.
The conditions of data set [8]: cited from earlier work. This is another data set of the same source.
Data set [9] can be described thus: Oral administration of triolide in yoghurt to rats, plasma D-β-hydroxybutyrate and tolerability. In kind it is in vivo, Wistar rats. The following applies: over at least 3 hours. On the procedure: The ability of orally administered triolide to raise blood ketone levels was investigated as follows. The day before the experiment commenced, 12 Wistar rats weighing 316±10 g were placed in separate cages. They had no access to food for 15 hours prior to presentation with triolide containing compositions, but water was provided ad libitum.
On the morning of the experiment 0.64 g of triolide was mixed with 5 g Co-op brand Black Cherry yoghurt in separate feeding bowls for […] of the rats. The memaining 3 rats were given 5 g of the yoghurt without the triolide as controls. The yoghurt containing bowls were placed in the cages and the rats timed while they ate. Two of the three control rats ate all the yoghurt and four of the six triolide yoghurt rats ate approximately half the provided amount. The remaining […] rats slept.
Control rats (n=2) were killed at 60 and 180 minutes after ingestion of yoghurt while triolide fed rats were killed at 80, 140, 150 and 155 minutes. Blood samples were taken for assay of D-β-hydroxybutyrate. […] Blood levels of (R)-3-hydroxyburyrate were measured using a […] assay of Anal. Biochem (1983) 131, p 478-482, 1.0 ml of a solution made up from 2-amino-2-methyl-1-propanol (100 mM pH 9.9, 0.094 g/10 ml), NAD^− (30 mM. 0.199 g/10 ml) and EDTA (4 mM, 0.015 g/10 ml) was added to each of a number of cuvettes and 4 μl sample or D-β-hydroxybutyrate control.

Data set [10] in a line: Rats fed triolide in 'Hob-Nob' biscuit, tolerability over two weeks. In kind it is in vivo. The following applies: two rats fed approximately 1.5 g triolide each in biscuit, after two weeks.
Data set [11] deals with septal cells. The following applies: 1 μm Aβ142 for 24 hours; cited from earlier work.
Setting [12] is: presence of D-β-hydroxybutyrate, whether β142 was present or not.
The mark [13] stands for this setting: intravenous infusion, normal human subjects and patients.

With `CC(O)CCO` (racemic) [racemic 1,3 butandiol, 1,3 butandiol], in data set [1], the “liver cytosolic [NAD]/[NADH]” value is recorded as 1000. In data set [2], the “blood D-β hydroxybutyrate concentration” value is listed as 0.98 mM, the blood acetoacetate concentration was 0.33 mM and the “rise of blood ketone concentration” value is “about 10 fold”.

What is called pKa is the pH at which an ionisable group is half protonated. Take `C[C@@H](O)CC(=O)O` [D-β-hydroxybutyrate, (R)-3-hydroxybutyric acid]: in data set [3], the “whole brain GABA levels” value was 466 pmoles/μg protein. The “neuronal cell number per microisland” value in [4] (D-β-hydroxybutyrate added to cultures containing amyloid β142) is 70 cells per microisland. In data set [4] (Na D-β-hydroxybutyrate 8 mM, no amyloid), the “neuronal cell number per microisland” value was 70 cells per microisland. In data set [4] (setting [12]), the length of axons result was “increased” and the “number of dendritic outgrowths” value was “increased”. In data set [5], the pKa is on record as 4.4.

On to `CC(=O)CC(=O)O` [acetoacetate], for which the “half time of spontaneous decarboxylation to acetone” value in data set [6] was “about 30 days”.

In the case of `CCO` [ethanol], the “liver cytosolic [NAD]/[NADH]” value in [1] is “around 200”.

As for `CC(O)CC(=O)[O-].[Na+]` (centres unmarked) [sodium hydroxybutyrate], the “increase of cerebral circulation and regional vasomotor reflexes” value in data set [7] is recorded as “up to 40%”.

On to `C[C@@H](O)CC(=O)[O-].[Na+]` [sodium salts of D-β-hydroxybutyrate], for which, in data set [8] (human, in vivo, iv), the toxicity result is “non-toxic”. For the same molecule, in data set [8] (setting [13]), the “effect on glucose, free fatty acids and glycerol concentration” value is “capable of decreasing”; the “effect on leucine oxidation” value is given as “ineffective”.

With `C[C@@H]1CC(=O)O[C@H](C)CC(=O)O[C@H](C)CC(=O)O1` [triolide, (R,R,R)-4,8,12-trimethyl-1,5,9-trioxadodeca-2,6,10-trione], the “ill effects from ingestion” value in [9] is on record as “no ill effects”. The ill effects result in data set [10] is given as “no ill effects”.

For the molecule “amyloid β142: amyloid β peptide (Sigma), toxic to hippocampal neurons”, in data set [11], the “activity of choline acetyl transferase” value was “no decrease” and the “decrease in acetyl choline production” value is listed as “over five fold”.
